pEC50, pKd, pKi: −log10 of the molar value. Peptide text beside a SMILES is read from it.

The term pKi denotes −log10 of the Ki, conventionally taken in molar units. A lower pKi goes with a large Ki. A word on the pEC50: it is the negative decadic logarithm of the EC50, by convention in mol/L.

Assay [1] concerns the target T1, rat GALR2 receptor (Rattus norvegicus, UniProt O08726).
T1 sequence (O08726 1-372): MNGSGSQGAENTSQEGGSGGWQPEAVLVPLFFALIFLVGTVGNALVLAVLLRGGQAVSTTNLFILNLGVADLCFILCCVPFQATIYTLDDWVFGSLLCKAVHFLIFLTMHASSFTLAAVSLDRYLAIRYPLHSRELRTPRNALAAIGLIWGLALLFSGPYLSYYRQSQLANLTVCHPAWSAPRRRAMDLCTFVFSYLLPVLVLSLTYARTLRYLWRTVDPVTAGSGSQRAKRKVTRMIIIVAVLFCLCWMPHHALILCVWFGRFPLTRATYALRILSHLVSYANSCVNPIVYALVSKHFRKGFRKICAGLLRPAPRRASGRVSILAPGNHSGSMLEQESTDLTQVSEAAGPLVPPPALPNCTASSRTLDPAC
Kind of assay: intracellular calcium mobilization (Fura-2) in cells transfected with rat GALR2. The assay is classed as cell-based. On the set-up: expressed in transfected cells. The protocol:
The intracellular free calcium concentration may be measured by microspectroflourometry using the fluorescent indicator dye Fura-2/AM (Bush et al. 1991). Stably transfected cells are seeded onto a 35 mm culture dish containing a glass coverslip insert. Cells are washed with HBS and loaded with 100 μL of Fura-2/AM (10 μM) for 20 to 40 min. After washing with HBS to remove the Fura-2/AM solution, cells are equilibrated in HBS for 10 to 20 min. Cells are then visualized under the 40× objective of a Leitz Fluovert FS microscope and fluorescence emission is determined at 510 nm with excitation wavelengths alternating between […]. Raw fluorescence data are converted to calcium concentrations using standard calcium concentration curves and software analysis techniques.

The target in assay [2] is T1, rat GALR2 receptor. The assay can be described thus: MAP kinase phosphorylation (western blot) in CHO cells expressing rat GALR2. The assay is classed as cell-based. On the set-up: expressed in transfected cells. The following applies: CHO rat GALR2, 10 minutes, human galanin (10 μM). The method, then: (§1) CHO cells expressing either the rat GALR2 receptor or the human GALR2 receptor were plated at ˜50% confluence into well-plates and grown in culture with fetal bovine serum reduced to 0.5% for 2 days. Fresh medium was exchanged for old and then aspirated after 2 hrs. […] Cells were washed with phosphate buffered saline and lysed in 100 uL Laemmli sample buffer (Bio-Rad) containing 5% β-mercaptoethanol. Cell lysate was scraped off the plate, transferred to a microfuge tube on ice, and sonicated for 10-15 seconds. Samples were heated at 100° C. for 3-5 minutes. Insoluble material was collected by centrifugation at 10,000×g for 5 min. Supernatant (20 μL/lane) was loaded onto a 4-20% polyacrylamide Bio-Rad Ready-Gel (10×10 cm) together with a phospho-MAP kinase protein standard (New England BioLabs) and molecular weight markers. […] The phospho-MAP kinase complex was detected by chemiluminescence using Lumiglow reagent (New England BioLabs) and Kodak X-Omat film, with exposure times ranging from 10 to 120 seconds.
(§2) Another functional assay relies on the fact that MAP kinase phosphorylation precedes the activation of phospholipase A2. We tested whether galanin-dependent activation of GALR2 could be monitored by changes in MAP kinase phosphorylation. […]

For a further assay, the target named is T2, human GALR2 receptor (Homo sapiens, UniProt O43603).
T2 construct: To obtain a full-length hGALR2 clone, superpools of a human heart cDNA library were screened by PCR; expressed in transfected cells
T2 sequence (O43603 1-387): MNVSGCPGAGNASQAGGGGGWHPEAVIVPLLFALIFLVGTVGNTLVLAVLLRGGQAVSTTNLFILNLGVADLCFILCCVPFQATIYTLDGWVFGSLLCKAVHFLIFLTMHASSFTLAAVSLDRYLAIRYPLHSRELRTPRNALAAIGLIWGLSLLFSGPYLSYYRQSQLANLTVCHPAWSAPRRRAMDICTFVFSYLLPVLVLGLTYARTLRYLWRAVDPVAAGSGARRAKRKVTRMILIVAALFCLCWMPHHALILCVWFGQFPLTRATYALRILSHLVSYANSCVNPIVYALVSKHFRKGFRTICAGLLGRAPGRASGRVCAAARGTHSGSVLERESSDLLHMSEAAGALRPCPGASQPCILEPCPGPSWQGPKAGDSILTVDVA
The assay can be described thus: MAP kinase phosphorylation (western blot) in CHO cells expressing human GALR2. The assay is classed as cell-based. The following applies: CHO human GALR2, 10 minutes, human galanin (10 μM). The method, then: as §1, §2
(In general: In western blotting, separated proteins are transferred to a membrane and probed.)

Assay [3] addresses T1, rat GALR2 receptor. The assay can be described thus: arachidonic acid release in CHO cells stably transfected with rat GALR2 (C-rGalR2-79). The assay is classed as cell-based. Further details: expressed in transfected cells.
Method: The labeled cells were washed three times with 200 ul HAM's F-12. The wells were then filled with medium (200 uL) and the assay was initiated with the addition of peptides or buffer (22 uL). Cells were incubated for 30 min at 37° C., 5% CO2. Supernatants were transferred to a microtiter plate and evaporated to dryness at 75° C. in a vacuum oven. Samples were then dissolved and resuspended in 25 uL distilled water. Scintillant (300 uL) was added to each well and samples were counted for ^3H in a Trilux plate reader. Data were analyzed using nonlinear regression and statistical techniques available in the GraphPAD Prism package (San Diego, Calif.).
In assay [4] the target is T3, rat GALR1 receptor (Rattus norvegicus, UniProt Q62805).
T3 sequence (Q62805 1-346): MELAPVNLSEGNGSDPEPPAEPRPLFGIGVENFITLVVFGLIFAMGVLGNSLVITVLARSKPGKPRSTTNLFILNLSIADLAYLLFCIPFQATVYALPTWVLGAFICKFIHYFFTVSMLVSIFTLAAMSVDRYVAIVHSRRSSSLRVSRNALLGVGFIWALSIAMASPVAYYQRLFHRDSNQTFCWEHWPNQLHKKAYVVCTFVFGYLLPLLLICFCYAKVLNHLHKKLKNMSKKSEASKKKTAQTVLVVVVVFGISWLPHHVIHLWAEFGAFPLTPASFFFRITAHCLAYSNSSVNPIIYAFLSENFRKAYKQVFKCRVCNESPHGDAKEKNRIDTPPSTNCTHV
The assay is classed as cell-based. Further details: expressed in transfected cells; host or cells: COS-7 (transient). The following applies: for fold less potent than porcine galanin in the rat GalR1 cAMP assay: LM(tk-) rat GALR1. A general note: Cyclic AMP is a second messenger, typically raised through Gs and lowered through Gi signalling.

In assay [5] the test system is galanin binding sites in brain, spinal cord, pancreatic islets and cell lines, gastrointestinal smooth muscle. The following applies: read-out: affinity of high-affinity galanin binding sites; several mammalian species and tissues; cited from earlier work.
The target in assay [6] is T3, rat GALR1 receptor. The assay can be described thus: biochemical.
Assay [7] deals with [125I]galanin binding sites in rat brain. The assay can be described thus: galanin receptor autoradiography, displacement of [125I]galanin from rat brain tissue sections. The following applies: 5 μM.
Method: Male Sprague-Dawley rats (Charles River, Wilmington, Mass.) were euthanized using CO2, decapitated, and their brains immediately removed and frozen on dry ice. Tissue sections were cut at 20 μm using a cryostat and thaw mounted onto gelatin coated slides. Tissues were preincubated in two 10 minute changes of 50 mM Tris-HCl buffer pH 7.4, containing 5 mM MgSO4 and 2 mM EGTA (Sigma). […] After incubation, tissues were dipped twice in ice-cold Tris-HCl buffer (40° C.), followed by a 5 minute wash in ice-cold Tris-HCl buffer (4° C.), then dipped twice in ice-cold deionized water to remove the salts. Sections were placed in X-ray cassettes and apposed to Dupont Cronex MRF 34 Film for 5 days. Films were developed using a Kodak M35A Processor.
Assay [8] concerns the target T1, rat GALR2 receptor. Kind of assay: GTPgamma35S binding to membranes of cells transfected with rat GalR2. The assay is classed as biochemical. Further details: expressed in transfected cells. The following applies: 1 μM peptide, n=3. The protocol: Membranes from cells transfected with the rat GalR2 receptor were suspended in assay buffer (50 mM Tris, 100 mM NaCl, 5 mM MgCl2, pH 7.4) supplemented with 0.1% BSA, 0.1% bacitracin and 10 μM GDP. Membranes were incubated on ice for 20 minutes, transferred to a 96-well Millipore microtiter GF/C filter plate and mixed with GTPγ^35S (250,000 cpm/sample, specific activity ˜1000 Ci/mmol) plus or minus GTPγS (final concentration=100 μM). Final membrane protein concentration=90 μg/mL. […] Samples collected in the filter plate were treated with scintillant and counted for ^35S in a Trilux (Wallac) liquid scintillation counter.
The signal transduction pathway outlined for rat GalR2 allows for the development of functional assays other than inositol phosphate, calcium, and arachidonic acid determination. One such assay relies on the fact that binding of GTP to a G-protein precedes agonist-dependent activation of phospholipase C. we examined whether galanin-dependent activation of GALR2 could be monitored by the binding of GTPγ^35S to membranes from stably transfected cells.
In general terms: GTPγS is a poorly hydrolysed GTP analogue; its binding reports G protein activation.

Assay [9] concerns the target T1, rat GALR2 receptor. Kind of assay: voltage clamp currents in Xenopus oocytes injected with rGalR2 mRNA. It counts as cell-based. On the set-up: expressed in transfected cells. The following applies: 100-1000 nM, oocytes injected with 5-50 pg rGalR2 mRNA, holding potential -80 mV.

With rat galanin, the “increase of intracellular free [Ca+2] (Δ[Ca+2])” value on rat GALR2 receptor [1] (1 μM peptide, C-rGALR2-79, n=9, not in untransfected cells) turned out to be 310 ± 70 nM.
For Human galanin, the “phosphorylated MAP kinase levels” value on rat GALR2 receptor [2] and on human GALR2 receptor was “increase” each time.
On to `CC[C@H](C)[C@H](NC(=O)[C@H](C)NC(=O)[C@H](Cc1c[nH]cn1)NC(=O)[C@@H]1CCCN1C(=O)CNC(=O)[C@H](CC(C)C)NC(=O)[C@H](CC(C)C)NC(=O)[C@H](Cc1ccc(O)cc1)NC(=O)CNC(=O)[C@H](C)NC(=O)[C@H](CO)NC(=O)[C@H](CC(N)=O)NC(=O)[C@H](CC(C)C)NC(=O)[C@@H](NC(=O)[C@H](Cc1c[nH]c2ccccc12)NC(=O)CNC(=O)[C@H](CCCNC(=N)N)NC(=O)[C@H](CCCCN)NC(=O)[C@H](CCC(=O)O)NC(=O)[C@H](CCCCN)NC(=O)[C@@H](NC(=O)[C@@H]1CCCN1C(=O)[C@H](CO)NC(=O)CNC(=O)[C@@H](N)CC(C)C)C(C)C)[C@@H](C)O)C(=O)N[C@@H](CC(=O)O)C(=O)N[C@@H](CC(N)=O)C(=O)N[C@@H](Cc1c[nH]cn1)C(=O)N[C@@H](CCCNC(=N)N)C(=O)N[C@@H](CO)C(=O)N[C@@H](Cc1ccccc1)C(=O)N[C@@H](Cc1c[nH]cn1)C(=O)N[C@@H](CC(=O)O)C(=O)N[C@@H](CCCCN)C(=O)N[C@@H](Cc1ccc(O)cc1)C(=O)NCC(=O)N[C@@H](CC(C)C)C(=O)N[C@@H](C)C(N)=O` [porcine galanin (−9) to (+29)], for which the “fold less potent than porcine galanin in the rat GalR2 arachidonic acid assay” value at rat GALR2 receptor [3] was 2 fold. Moreover, on rat GALR1 receptor [4], the “fold less potent than porcine galanin in the rat GalR1 cAMP assay” value is recorded as 400 fold.
With [^125I]porcine galanin, the pKd in [5] was 9.00 to 9.30.
Consider `CC[C@H](C)[C@H](NC(=O)[C@H](C)NC(=O)[C@H](Cc1c[nH]cn1)NC(=O)[C@@H]1CCCN1C(=O)CNC(=O)[C@H](CC(C)C)NC(=O)[C@H](CC(C)C)NC(=O)[C@H](Cc1ccc(O)cc1)NC(=O)CNC(=O)[C@H](C)NC(=O)[C@H](CO)NC(=O)[C@H](CC(N)=O)NC(=O)[C@H](CC(C)C)NC(=O)[C@@H](NC(=O)[C@H](Cc1c[nH]c2ccccc12)NC(=O)CNC(=O)[C@H](CCCNC(=N)N)NC(=O)[C@H](CCCCN)NC(=O)[C@H](CCC(=O)O)NC(=O)[C@H](CCCCN)NC(=O)[C@@H](NC(=O)[C@@H]1CCCN1C(=O)[C@@H](N)CO)C(C)C)[C@@H](C)O)C(=O)N[C@@H](CC(=O)O)C(=O)N[C@@H](CC(N)=O)C(=O)N[C@@H](Cc1c[nH]cn1)C(=O)N[C@@H](CCCNC(=N)N)C(=O)N[C@@H](CO)C(=O)N[C@@H](Cc1ccccc1)C(=O)N[C@@H](Cc1c[nH]cn1)C(=O)N[C@@H](CC(=O)O)C(=O)N[C@@H](CCCCN)C(=O)N[C@@H](Cc1ccc(O)cc1)C(=O)NCC(=O)N[C@@H](CC(C)C)C(=O)N[C@@H](C)C(N)=O` [porcine galanin (−7) to (+29)], for which the “fold less potent than porcine galanin in the rat GalR2 arachidonic acid assay” value on rat GALR2 receptor [3] stood at 3 fold. Besides, the “fold less potent than porcine galanin in the rat GalR1 cAMP assay” value on rat GALR1 receptor [4] worked out at 350 fold.
On rat GALR1 receptor [6], `CC(C)C[C@H](NC(=O)[C@H](CC(C)C)NC(=O)[C@@H](Cc1c[nH]c2ccccc12)NC(=O)[C@H](Cc1ccccc1)NC(=O)[C@@H](Cc1c[nH]c2ccccc12)NC(=O)[C@H](CCC(N)=O)NC(=O)[C@H](CCC(N)=O)NC(=O)[C@@H]1CCCN1C(=O)[C@H](CCCCN)NC(=O)[C@@H]1CCCN1C(=O)[C@@H](CCCNC(=N)N)NC(=O)[C@@H]1CCCN1C(=O)CNC(=O)[C@H](CC(C)C)NC(=O)[C@H](CC(C)C)NC(=O)[C@H](Cc1ccc(O)cc1)NC(=O)CNC(=O)[C@H](C)NC(=O)[C@H](CO)NC(=O)[C@H](CC(N)=O)NC(=O)[C@H](CC(C)C)NC(=O)[C@@H](NC(=O)[C@H](Cc1c[nH]c2ccccc12)NC(=O)CN)[C@@H](C)O)C(N)=O` [Peptide C7, C7] (HELM PEPTIDE1{G.W.T.L.N.S.A.G.Y.L.L.G.P.[dR].P.K.P.Q.Q.[dW].F.[dW].L.L.[am]}$$$$V2.0; N-terminus and C-terminus assumed) had a pKi of 7.79. In addition, at rat GALR1 receptor [4] (read-out: LM(tk-) Rat GALR1 cAMP assay EC50), the pEC50 is 9.28.
For porcine galanin (1-29), the “effect on intracellular calcium levels” value on rat GALR2 receptor [1] (COS-7 cells transfected with rat GALR2 cDNA) is reported as “no effect”. For the same compound, the “displacement of [125I]galanin binding from rat brain tissue sections” value in [7] is recorded as “complete displacement”. The “binding of GTPγ35S in presence of peptide” value on rat GALR2 receptor [8] (C-rGALR2-79 membranes, without peptide 8,014±113 cpm) is given as 10,292±104 cpm; on rat GALR2 receptor [8] (L-rGalR2I-4 membranes (intronless), without peptide 27,545±504 cpm) it was 29,011±526 cpm. Besides, the “activation of rapid inward currents (oocytes responding)” value at rat GALR2 receptor [9] is on record as 36 of 46.

Source of the values: patent publication US6586191B2 (priority 1996, dated 2003).
